Source: ChEMBL document CHEMBL2407087, “Casuarinines A-J, lycodine-type alkaloids from Lycopodiastrum casuarinoides” (J Nat Prod, 2013)
Calls of active or inactive are those of the source. The calls are words filed in the database; no cut-off is given here.

Legend:
[1] = target: T1, Acetylcholinesterase (Rattus norvegicus) (UniProt P37136); experiment: Reversible inhibition of rat cortical AChE up to 8 mins
T1 sequence (whole entry): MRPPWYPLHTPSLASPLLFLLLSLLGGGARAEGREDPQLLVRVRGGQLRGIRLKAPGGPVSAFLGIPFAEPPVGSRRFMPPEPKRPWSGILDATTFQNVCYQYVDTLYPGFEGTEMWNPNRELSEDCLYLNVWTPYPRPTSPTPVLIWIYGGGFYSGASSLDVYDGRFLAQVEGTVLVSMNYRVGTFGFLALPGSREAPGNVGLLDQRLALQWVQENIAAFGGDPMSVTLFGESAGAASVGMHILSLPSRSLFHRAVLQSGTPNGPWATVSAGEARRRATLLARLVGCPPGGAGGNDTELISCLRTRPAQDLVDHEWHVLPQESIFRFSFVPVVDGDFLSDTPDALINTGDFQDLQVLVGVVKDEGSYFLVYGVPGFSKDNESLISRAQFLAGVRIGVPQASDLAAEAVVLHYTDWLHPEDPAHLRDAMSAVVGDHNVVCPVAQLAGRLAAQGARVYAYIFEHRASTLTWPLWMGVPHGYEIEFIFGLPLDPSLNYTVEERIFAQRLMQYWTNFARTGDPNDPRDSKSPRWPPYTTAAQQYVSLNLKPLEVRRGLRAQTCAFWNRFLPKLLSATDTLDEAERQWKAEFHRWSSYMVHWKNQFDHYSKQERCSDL

[2] = target: Acetylcholinesterase (Homo sapiens, UniProt P22303); experiment: Inhibition of AChE (unknown origin) using acetylthiocholine iodide as substrate after 8 mins by Ellman's spectrophotometric method
[3] = target: T1, Acetylcholinesterase (Rattus norvegicus); experiment: Mixed-type competitive inhibition of rat cortical AChE by Lineweaver-Burke plot analysis
[4] = target: T2, Acetylcholinesterase (Mus musculus, UniProt P21836); experiment: Inhibition of mouse skeletal AChE
T2 sequence (P21836 whole entry): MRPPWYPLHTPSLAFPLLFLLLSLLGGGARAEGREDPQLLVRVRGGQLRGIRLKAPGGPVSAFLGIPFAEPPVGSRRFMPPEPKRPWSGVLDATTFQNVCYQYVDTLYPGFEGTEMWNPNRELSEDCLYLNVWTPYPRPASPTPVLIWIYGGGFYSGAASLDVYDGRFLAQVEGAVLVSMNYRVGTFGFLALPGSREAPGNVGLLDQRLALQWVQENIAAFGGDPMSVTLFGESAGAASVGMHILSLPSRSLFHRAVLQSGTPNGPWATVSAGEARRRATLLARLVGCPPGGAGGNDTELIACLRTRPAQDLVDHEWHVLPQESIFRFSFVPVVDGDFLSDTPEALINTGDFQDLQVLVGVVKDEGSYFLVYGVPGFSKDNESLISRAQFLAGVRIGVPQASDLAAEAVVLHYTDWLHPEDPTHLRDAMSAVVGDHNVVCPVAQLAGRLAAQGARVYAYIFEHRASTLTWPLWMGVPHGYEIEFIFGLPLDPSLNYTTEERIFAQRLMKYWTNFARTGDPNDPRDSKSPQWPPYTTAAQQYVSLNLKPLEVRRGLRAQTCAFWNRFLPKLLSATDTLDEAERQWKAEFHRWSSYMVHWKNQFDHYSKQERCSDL

[5] = Neuroprotective activity in human SH-SY5Y cells assessed as protection against H2O2-induced reduction of cell viability at 1 uM treated 2 hrs before H2O2 addition measured after 24 hrs by MTT assay relative to control; format: functional, cell-based
[6] = Neuroprotective activity in human SH-SY5Y cells assessed as protection against H2O2-induced reduction of cell viability at 10 uM treated 2 hrs before H2O2 addition measured after 24 hrs by MTT assay relative to control; format: functional, cell-based
[7] = Neuroprotective activity in human SH-SY5Y cells assessed as protection against H2O2-induced reduction of cell viability at 10 uM treated 2 hrs before H2O2 addition measured after 24 hrs by MTT assay relative to H2O2 treated control; format: functional, cell-based
[8] = Neuroprotective activity in human SH-SY5Y cells assessed as protection against H2O2-induced reduction of cell viability at 100 uM treated 2 hrs before H2O2 addition measured after 24 hrs by MTT assay relative to H2O2 treated control; format: functional, cell-based
[9] = Neuroprotective activity in human SH-SY5Y cells assessed as protection against H2O2-induced reduction of cell viability at 100 uM treated 2 hrs before H2O2 addition measured after 24 hrs by MTT assay relative to control; format: functional, cell-based

Sequence of Acetylcholinesterase (Homo sapiens, UniProt P22303) (P22303 whole entry): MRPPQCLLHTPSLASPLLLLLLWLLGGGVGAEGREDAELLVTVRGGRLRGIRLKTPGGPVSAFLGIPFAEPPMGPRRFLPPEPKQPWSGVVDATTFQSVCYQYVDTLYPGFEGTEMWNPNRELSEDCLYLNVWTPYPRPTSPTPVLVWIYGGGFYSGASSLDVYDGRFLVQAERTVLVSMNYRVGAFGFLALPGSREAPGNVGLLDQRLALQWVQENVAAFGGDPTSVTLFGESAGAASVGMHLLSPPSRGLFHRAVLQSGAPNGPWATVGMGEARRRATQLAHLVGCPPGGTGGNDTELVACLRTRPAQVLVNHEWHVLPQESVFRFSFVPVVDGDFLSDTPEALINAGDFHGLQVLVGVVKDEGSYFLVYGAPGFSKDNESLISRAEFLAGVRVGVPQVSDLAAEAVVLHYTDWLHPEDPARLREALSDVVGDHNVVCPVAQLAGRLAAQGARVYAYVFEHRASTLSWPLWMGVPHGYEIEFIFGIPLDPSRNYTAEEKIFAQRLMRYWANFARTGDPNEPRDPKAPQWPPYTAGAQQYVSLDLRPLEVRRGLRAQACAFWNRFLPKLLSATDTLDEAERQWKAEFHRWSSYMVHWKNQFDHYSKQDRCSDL

With `C=C[C@@H]1[C@H]2C=C(C)C[C@]1(NC)c1ccc(=O)[nH]c1C2` the inhibition [1] was “Active”, the IC50 [2] was 15 µM and the inhibition [3] was “Active”. It also gave an IC50 [4] of 2 µM.

In the case of `CC1=C[C@H]2Cc3[nH]c(=O)ccc3[C@@]3(C1)[C@@H]2[C@H](C)CN3C`, the inhibition [1] is reported as “Active” and the IC50 [2] is reported as 12.1 µM.

With `C=C[C@@H]1[C@H]2C=C(C)C[C@]1(N)c1ccc(=O)[nH]c1C2` the inhibition [1] was “Active” and the inhibition [3] was “Active”.

For `CC1=C[C@H]2Cc3[nH]c(=O)ccc3[C@@]3(C1)[C@@H]2[C@H](Cl)CCN3C`, the inhibition [1] was “Active”, the IC50 [2] was 20.9 µM and the inhibition [3] was “Active”.

`C=C[C@@H]1[C@@H]2Cc3[nH]c(=O)ccc3[C@@]1(N)C[C@H](C)C2` showed an Activity [5] of 49.1%, an Activity [6] of 55.5% and an Activity [7] of 12%.

With `CC(=O)N[C@@H](CS)C(=O)O` the Activity [8] was 12.3% and the Activity [9] was 55.8%.
